The SangsterLogP compilation

Assay: method code SF, from DOI: 10.1002/jps.2600780616, PMID: 2527297
Conditions: pH 7.4

| SMILES | logD |
| --- | --- |
| N#CCCN(N)c1nc2cc(C(=O)c3ccccc3)ccc2o1 | 1.94 |
| N#CCCN(N)c1nc2cc(OCc3ccccc3)ccc2o1 | 2.52 |
| CC(C)(C)c1ccc2oc(N(N)CCC#N)nc2c1 | 2.82 |
| N#CCCN(N)c1nc2ccccc2o1 | 0.9 |
| CS(=O)(=O)c1ccc2oc(N(N)CCC#N)nc2c1 | -0.58 |
| CS(=O)c1ccc2oc(N(N)CCC#N)nc2c1 (centres undefined) | -0.53 |

Second part, the compound after the results:

| logD | SMILES |
| --- | --- |
| 0.42 | N#CCCN(N)c1nc2cc(C#N)ccc2o1 |
| 1.91 | CCc1ccc2oc(N(N)CCC#N)nc2c1 |
| 1.09 | N#CCCN(N)c1nc2cc(F)ccc2o1 |
| 1.48 | Cc1ccc2oc(N(N)CCC#N)nc2c1 |
| 1.5 | CSc1ccc2oc(N(N)CCC#N)nc2c1 |
| 1.72 | N#CCCN(N)c1nc2cc(Cl)ccc2o1 |
| 1.72 | N#CCCN(N)c1nc2cc(C(F)(F)F)ccc2o1 |
| 0.98 | COc1ccc2oc(N(N)CCC#N)nc2c1 |
